These results are taken from PMC8220105 (Computational and Structural Biotechnology Journal, 2021).

SMILES strings stand for the structures.

For orientation: Kd means the free concentration of one partner at which half of the binding sites on the other are occupied at equilibrium, for simple one-to-one binding. A low value points to higher affinity.

The assay concerns the target p38α MAPK (Homo sapiens, UniProt Q16539). The assay is described as follows: microscale thermophoresis. It counts as binding.

p38α MAPK, sequence (Q16539 2-360): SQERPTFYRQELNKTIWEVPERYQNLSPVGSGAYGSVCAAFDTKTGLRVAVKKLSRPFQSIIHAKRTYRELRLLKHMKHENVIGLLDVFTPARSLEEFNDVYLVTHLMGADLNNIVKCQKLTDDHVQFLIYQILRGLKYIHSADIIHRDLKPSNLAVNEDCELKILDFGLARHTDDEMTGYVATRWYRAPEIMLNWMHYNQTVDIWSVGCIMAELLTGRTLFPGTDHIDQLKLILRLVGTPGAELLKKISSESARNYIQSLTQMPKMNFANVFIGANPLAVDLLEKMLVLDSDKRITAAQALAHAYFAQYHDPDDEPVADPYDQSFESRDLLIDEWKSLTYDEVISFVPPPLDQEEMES

`COC(=O)[C@@]12OC[C@]34[C@H]([C@@H](O)[C@@H]1O)[C@@]1(C)CC(=O)C(O)=C(C)[C@@H]1C[C@H]3OC(=O)[C@H](OC(=O)CC(C)C)[C@@H]24` [bruceine A] displayed a Kd of 31 nM.
